ChEMBL document CHEMBL6074689 (Eur J Med Chem, 2025)
The source made the active and inactive calls. The calls are words filed in the database; no cut-off is given here.

Experiments:
Acetylcholinesterase [1] = target: T1, Acetylcholinesterase (Homo sapiens, UniProt P22303); experiment: Inhibition of human recombinant AChE expressed in HEK293 cells using acetylthiocholine iodide as substrate preincubated with compound for 30 mins followed by substrate addition and measured after 30 mins by DTNB reagent based Ellman's method
Cholinesterase = Cholinesterase (Equus caballus, UniProt P81908); experiment: Inhibition of equine serum BChE using acetylthiocholine iodide as substrate preincubated with compound for 30 mins followed by substrate addition and measured after 30 mins by DTNB reagent based Ellman's method
Acetylcholinesterase [2] = target: T1, Acetylcholinesterase; experiment: Reversible binding affinity to human AChE using acetylthiocholine iodide as substrate assessed as equilibrium binding constant preincubated for 40 mins by DTNB reagent based Ellman's method
[3] = target: Cholinesterase (Equus caballus) (UniProt P81908); experiment: Reversible binding affinity to equine serum BChE using acetylthiocholine iodide as substrate assessed as binding constant preincubated for 40 mins by DTNB reagent based Ellman's method
Acetylcholinesterase [4] = target: T1, Acetylcholinesterase; experiment: Displacement of propidium iodide from human AChE PAS assessed as reduction in fluorescence intensity at 1 uM incubated for 6 hrs by fluorescence based analysis relative to control; parameters: scale not given: the % may be the effect or the level left
Acetylcholinesterase [5] = target: T1, Acetylcholinesterase; experiment: Displacement of propidium iodide from human AChE PAS assessed as reduction in fluorescence intensity at 0.1 uM incubated for 6 hrs by fluorescence based analysis relative to control; parameters: scale not given: the % may be the effect or the level left
Acetylcholinesterase [6] = target: T1, Acetylcholinesterase; experiment: Displacement of propidium iodide from human AChE PAS assessed as reduction in fluorescence intensity at 0.01 uM incubated for 6 hrs by fluorescence based analysis relative to control; parameters: scale not given: the % may be the effect or the level left
PC-12 [7] = experiment: Cytotoxicity against rat PC-12 cells assessed as cell viability upto 20 uM measured for 24 hrs by MTT assay; type: toxicity, cell-based; conditions: pc-12, 24 h
PC-12 [8] = experiment: Induction of apoptosis in rat PC-12 cells assessed as viable cells at 10 uM incubated for 24 hrs by Annexin V/PI staining based flow cytometry analysis (reference value: 82.8%); type: functional; conditions: read-out: Activity
PC-12 [9] = experiment: Induction of apoptosis in rat PC-12 cells assessed as viable cells at 5 uM incubated for 24 hrs by Annexin V/PI staining based flow cytometry analysis (reference value: 82.8%); type: functional; conditions: read-out: Activity
[10] = Metal chelating activity assessed as compound-Fe2+ complex formation by measuring increase in absorption intensity at 300 uM in presence of by UV-vis spectrometry
[11] = Metal chelating activity assessed as compound-Cu2+ complex formation by measuring increase in absorption intensity at 300 uM in presence of by UV-vis spectrometry
[12] = Permeability of the compound across blood brain barrier; type: ADME; conditions: read-out: BBB
[13] = target: Amyloid-beta precursor protein (Homo sapiens) (UniProt P05067); experiment: Inhibition of amyloid beta (1 to 42) (unknown origin) self induced aggregation at 1.521 uM incubated for 72 hrs by ThT fluorescence based assay
[14] = target: Amyloid-beta precursor protein (Homo sapiens) (UniProt P05067); experiment: Inhibition of amyloid beta (1 to 42) (unknown origin) self induced aggregation at 1.521 uM incubated for 72 hrs by transmission electron microscopic analysis
[15] = Toxicity in Drosophila melanogaster Oregon R-positive assessed as reduction in eclosed flies at 40 uM measured for 15 days relative to control; parameters: scale not given: the % may be the effect or the level left; conditions: 360 h, time 15 day
Drosophila melanogaster [16] = experiment: Anti-alzheimer activity in ey-GAL4 driven UAS-amyloid beta (1 to 42) induced Drosophila melanogaster Oregon R-positive assessed as mild eye phenotype at 10 to 20 uM by Stereo zoom microscopic imaging analysis relative to control; type: functional; conditions: dose 10-20 µM
Drosophila melanogaster [17] = experiment: Anti-alzheimer activity in ey-GAL4 driven UAS-amyloid beta (1 to 42) induced Drosophila melanogaster Oregon R-positive assessed as rescued eye phenotype at 10 to 20 uM by Stereo zoom microscopic imaging analysis relative to control; type: functional; conditions: dose 10-20 µM
Drosophila melanogaster [18] = experiment: Anti-alzheimer activity in ey-GAL4 driven UAS-amyloid beta (1 to 42) induced Drosophila melanogaster Oregon R-positive assessed as mild eye phenotype at 10 uM by Stereo zoom microscopic imaging analysis relative to control; type: functional
Drosophila melanogaster [19] = experiment: Anti-alzheimer activity in ey-GAL4 driven UAS-amyloid beta (1 to 42) induced Drosophila melanogaster Oregon R-positive assessed as severe eye phenotype at 40 uM by Stereo zoom microscopic imaging analysis relative to control; type: functional
Drosophila melanogaster [20] = experiment: Anti-alzheimer activity in ey-GAL4 driven UAS-amyloid beta (1 to 42) induced Drosophila melanogaster Oregon R-positive assessed as rescued eye phenotype at 50 uM by Stereo zoom microscopic imaging analysis relative to control; type: functional
Drosophila melanogaster [21] = experiment: Anti-alzheimer activity in ey-GAL4 driven UAS-amyloid beta (1 to 42) induced Drosophila melanogaster Oregon R-positive assessed as increase in superoxide level at 10 to 20 uM by fluorescence based analysis; type: functional, organism-based; conditions: dose 10-20 µM
Drosophila melanogaster [22] = experiment: Inhibition of oxidative stress in y-GAL4 driven UAS-amyloid beta (1 to 42) induced Drosophila melanogaster Oregon R-positive assessed as reduction in ROS level at 10 to 20 uM incubated for 30 mins by H2DCFDA staining based analysis; type: functional, organism-based; conditions: dose 10-20 µM
[23] = Acute toxicity in Swiss albino mouse assessed as animal survival at 175 mg/kg, po administered for 14 days; type: organism-based; conditions: in vivo, 336 h, time 14 day
[24] = Acute toxicity in Swiss albino mouse assessed as tremor at 175 mg/kg, po administered for 14 days; type: organism-based; conditions: in vivo, 336 h, time 14 day
Mus musculus [25] = experiment: Antialzheimer activity in scopolamine-induced Swiss albino mouse model assessed as decrease in escape latency at 0.3 to 0.5 mg/kg, po preincubated with compound for 30 mins followed by scopolamine induction and measured after 5 days by Morris water maze test; type: functional, organism-based; conditions: dose 0.3-0.5 mg/kg, time 7230.0 min
Mus musculus [26] = experiment: Antialzheimer activity in scopolamine-induced Swiss albino mouse model assessed as reduction in AChE level at 0.3 to 0.5 mg/kg, po preincubated with compound for 30 mins followed by scopolamine induction and measured after 30 mins; type: functional, organism-based; conditions: dose 0.3-0.5 mg/kg, time 1.0 hrs
Mus musculus [27] = experiment: Antialzheimer activity in scopolamine-induced Swiss albino mouse model assessed as reduction in BChE level at 0.3 to 0.5 mg/kg, po preincubated with compound for 30 mins followed by scopolamine induction and measured after 30 mins; type: functional, organism-based; conditions: dose 0.3-0.5 mg/kg, time 1.0 hrs
Mus musculus [28] = experiment: Antioxidant activity against scopolamine-induced Swiss albino mouse model assessed as increase in SOD level at 0.3 to 0.5 mg/kg, po by absorbance based analysis; type: functional, organism-based; conditions: dose 0.3-0.5 mg/kg
Mus musculus [29] = experiment: Antioxidant activity against scopolamine-induced Swiss albino mouse model assessed as increase in catalase level in brain at 0.3 to 0.5 mg/kg, po by absorbance based analysis; type: functional, organism-based; conditions: dose 0.3-0.5 mg/kg
Mus musculus [30] = experiment: Antioxidant activity against scopolamine-induced Swiss albino mouse model assessed as increase in MDA level at 0.3 to 0.5 mg/kg, po by absorbance based analysis; type: functional, organism-based; conditions: dose 0.3-0.5 mg/kg
Mus musculus [31] = experiment: Neuroprotective activity against scopolamine-induced Swiss albino mouse model assessed as increase in NR4A2 mRNA level at 0.3 to 0.5 mg/kg, po measured after 6 days by RT-PCR analysis; type: functional, organism-based; conditions: dose 0.3-0.5 mg/kg, time 6.0 day
Mus musculus [32] = experiment: Neuroprotective activity against scopolamine-induced Swiss albino mouse model assessed as upregulation of PKA mRNA level at 0.3 to 0.5 mg/kg, po measured after 6 days by RT-PCR analysis; type: functional, organism-based; conditions: dose 0.3-0.5 mg/kg, time 6.0 day

T1 sequence (P22303 whole entry): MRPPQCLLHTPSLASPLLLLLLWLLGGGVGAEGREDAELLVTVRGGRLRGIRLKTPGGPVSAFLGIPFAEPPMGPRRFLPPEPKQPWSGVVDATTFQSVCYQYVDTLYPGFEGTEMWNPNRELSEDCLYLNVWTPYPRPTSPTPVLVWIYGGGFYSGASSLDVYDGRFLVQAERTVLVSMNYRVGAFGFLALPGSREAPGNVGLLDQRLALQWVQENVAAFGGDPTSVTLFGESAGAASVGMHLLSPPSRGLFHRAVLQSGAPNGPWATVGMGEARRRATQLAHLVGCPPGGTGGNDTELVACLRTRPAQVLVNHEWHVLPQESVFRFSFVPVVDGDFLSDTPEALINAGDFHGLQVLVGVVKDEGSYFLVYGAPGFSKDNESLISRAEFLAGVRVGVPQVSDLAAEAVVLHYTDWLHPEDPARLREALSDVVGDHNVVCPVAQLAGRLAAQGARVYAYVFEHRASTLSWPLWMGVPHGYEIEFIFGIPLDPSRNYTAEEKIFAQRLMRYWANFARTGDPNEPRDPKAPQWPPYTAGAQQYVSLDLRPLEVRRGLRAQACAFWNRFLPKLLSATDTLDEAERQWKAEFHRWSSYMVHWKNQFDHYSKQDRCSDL
Amyloid-beta precursor protein (Homo sapiens), sequence (P05067 whole entry): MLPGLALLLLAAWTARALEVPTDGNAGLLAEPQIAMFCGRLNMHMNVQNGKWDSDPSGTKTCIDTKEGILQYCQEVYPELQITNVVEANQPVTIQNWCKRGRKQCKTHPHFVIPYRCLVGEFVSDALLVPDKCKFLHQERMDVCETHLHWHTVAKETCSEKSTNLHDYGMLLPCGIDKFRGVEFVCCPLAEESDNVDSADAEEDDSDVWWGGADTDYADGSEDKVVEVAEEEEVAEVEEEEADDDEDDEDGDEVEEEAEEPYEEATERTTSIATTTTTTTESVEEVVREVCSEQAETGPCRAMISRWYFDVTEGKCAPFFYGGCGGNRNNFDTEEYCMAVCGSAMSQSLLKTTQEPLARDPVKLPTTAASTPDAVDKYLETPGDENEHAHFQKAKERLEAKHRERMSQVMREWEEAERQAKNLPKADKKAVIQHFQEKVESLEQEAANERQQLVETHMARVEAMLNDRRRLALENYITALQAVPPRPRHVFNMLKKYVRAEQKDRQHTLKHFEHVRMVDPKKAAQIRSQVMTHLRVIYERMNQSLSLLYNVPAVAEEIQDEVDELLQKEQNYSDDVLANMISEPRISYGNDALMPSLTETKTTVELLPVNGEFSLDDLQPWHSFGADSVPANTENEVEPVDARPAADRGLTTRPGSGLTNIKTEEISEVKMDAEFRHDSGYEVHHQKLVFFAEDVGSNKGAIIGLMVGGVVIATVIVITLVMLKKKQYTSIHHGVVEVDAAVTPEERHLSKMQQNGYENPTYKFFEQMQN
Cholinesterase (Equus caballus), sequence (P81908 whole entry): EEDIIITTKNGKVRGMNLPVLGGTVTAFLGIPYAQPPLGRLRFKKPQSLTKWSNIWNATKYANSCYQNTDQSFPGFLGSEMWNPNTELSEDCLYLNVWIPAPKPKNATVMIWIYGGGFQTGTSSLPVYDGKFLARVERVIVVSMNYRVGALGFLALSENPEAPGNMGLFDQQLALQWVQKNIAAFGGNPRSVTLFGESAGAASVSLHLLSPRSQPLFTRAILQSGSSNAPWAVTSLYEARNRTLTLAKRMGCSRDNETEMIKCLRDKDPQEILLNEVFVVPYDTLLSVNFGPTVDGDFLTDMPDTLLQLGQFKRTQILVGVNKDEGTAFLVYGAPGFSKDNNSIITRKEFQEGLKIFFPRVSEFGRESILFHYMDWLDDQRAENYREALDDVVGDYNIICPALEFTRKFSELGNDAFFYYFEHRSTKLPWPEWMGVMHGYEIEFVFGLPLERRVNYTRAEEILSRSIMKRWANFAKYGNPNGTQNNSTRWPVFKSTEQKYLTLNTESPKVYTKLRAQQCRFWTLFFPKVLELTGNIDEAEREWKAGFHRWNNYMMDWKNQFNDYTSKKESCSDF
Cholinesterase, sequence (P81908 whole entry): as above

SMILES: C[C@@H](c1cccc(OC(=O)NCCc2c[nH]c3ccc(Cl)cc23)c1)N(C)C
- IC50 (Acetylcholinesterase [1]): 7.97 nM
- IC50 (Cholinesterase): 0.79 nM
- Kb (Acetylcholinesterase [2]): 0.196 nM
- K [3]: 0.035 min⁻¹
- Activity (Acetylcholinesterase [4]): 20.4%
- Activity (Acetylcholinesterase [5]): 3.56%
- Activity (Acetylcholinesterase [6]): 1.37%
- Activity (PC-12 [7]): Non-toxic
- viability at 10 µM (PC-12 [8]): 55.3%
- viability at 5 µM (PC-12 [9]): 81.1%
- Activity [10]: inactive
- Activity [11]: inactive
- Papp [12]: 13 ×10⁻⁶ cm/s
- inhibition [13]: 100%
- inhibition [14]: Active
- Activity [15]: 20%
- Activity (Drosophila melanogaster [16]): 36%
- Activity (Drosophila melanogaster [17]): 36%
- Activity (Drosophila melanogaster [18]): 36%
- Activity (Drosophila melanogaster [19]): 16%
- Activity (Drosophila melanogaster [20]): 23%
- Activity (Drosophila melanogaster [21]): Active
- Activity (Drosophila melanogaster [22]): Active
- Activity [23]: Non-toxic
- Activity [24]: Non-toxic
- Activity (Mus musculus [25]): Active
- Activity (Mus musculus [26]): Active
- Activity (Mus musculus [27]): Active
- Activity (Mus musculus [28]): Active
- Activity (Mus musculus [29]): Active
- Activity (Mus musculus [30]): Active
- Activity (Mus musculus [31]): Active
- Activity (Mus musculus [32]): Active
